The structures appear in SMILES notation.

Usually melting point stands for the temperature, or range, at which the solid turns liquid.

`COc1cc(N)c(OCc2ccccc2)cc1OC` returned a melting point of 74 °C. The compound `COc1cccc(-c2nn(C(C)c3oc4ccccc4c(=O)c3-c3ccccc3)c3ncnc(N)c23)c1` (stereo not given) gave a melting point of 176 to 178 °C. The result for `C=CCC12CC(=O)N(C)C1(O)CCc1ccc(OC)cc12` (stereo not given) reads 146 to 149 °C. In the case of `CCN1c2ccccc2C=C(Br)c2ccccc21` it was 148 °C; in that of `O=C(O)CCC(=O)NCc1ccc2c(c1)-c1[nH]nc(-c3ccsc3)c1C2`, 235 to 236 °C; in that of `CCN(CC)CCOc1cccc2c1c1cc(F)ccc1n2Cc1ccccc1`, 68 to 69 °C. For the compound `CCOC(=O)NN=C(c1ccc(Cl)cc1)c1ccc(OP(=S)(OCC)OCC)cc1`, the melting point was 106 °C. Consider `CCOC(=O)Nc1ccc(OC)cc1C(C)=O`, for which the melting point lay in the range of 97 to 100 °C. As for `CN(C1CCN(Cc2cnc3ccccc3c2)CC1)S(=O)(=O)c1ccc(Nc2nccc(Nc3ccc(F)cc3)n2)cc1`, the melting point lay in the range of 125 to 127 °C. In the case of `CCCc1nc2c(N)nc3ccc(-c4cccc(NS(C)(=O)=O)c4)cc3c2s1` it was 244 to 246 °C; in that of `CN1CCC(C2c3sccc3C=Cn3ncnc32)CC1` (stereo not given), 137 °C. The result for `O=c1[nH]c(=O)n(CCCCBr)c2cc([N+](=O)[O-])ccc12` reads 202 to 203 °C; that for `C=C(C)CC(O)(C(Nc1ccc(F)c2nc(C)ncc12)c1ccc(Cl)cc1OC)C(F)(F)F` (stereo not given), 110 °C; that for `CCc1nnc(C(CCN2CC3CCC2CC3)(c2ccccc2)c2ccccc2)o1`, 96 to 98.5 °C. The result for `COc1ccc2c(c1OC)CCC(NC(=O)CCCCC(=O)NCCc1ccccc1)C2` (stereo not given) reads 191 to 193 °C; that for `COC1=CC(C=C(C#N)C(=O)O)CC(OC)=C1OC` (stereo not given), 102 to 105 °C. `Nc1ccc(-n2ccn(-c3ccc(OC(F)(F)C(F)F)cc3)c2=O)cc1`: the melting point fell in the range of 150 to 151 °C.

For `c1csc(-c2cnc(-c3cccs3)s2)c1`, the melting point is 93 to 93.8 °C. In the case of `CS(=O)(=O)Nc1ccc(Sc2ccc([N+](=O)[O-])cc2)cc1Oc1ccc(F)cc1F` it was 124 to 127 °C.

The compound `COC(=O)[C@]1(C)Oc2ccccc2NC1=O` displayed a melting point of 153 to 157 °C. The result for `CCCOC(=O)Nc1nc(=O)n(C2OC(C)C(O)C2O)cc1F` (stereo not given) reads 125 to 126 °C. For the compound `CC(c1ccc(-c2ccccc2)c(F)c1)c1csc(NC(=O)C(N)=O)n1` (stereo not given), the melting point lay in the range of 179 to 180 °C. The result for `COC(=O)C=Cc1cc2cc(NC(=O)c3cc4ccccc4o3)ccc2[nH]1` reads 259 to 260 °C; that for `ClCCCON=C(Cl)c1c(Cl)cccc1Cl`, 69 to 71 °C. The result for `O=C(NC1CCC(c2cc(Nc3cccc(C(F)(F)F)c3)n[nH]2)C1)C1CCCCC1` (stereo not given) reads 163 °C; that for `Cc1c(Cc2ccc(C(C)C)cc2)c2c(c(C)c1NC(=O)CC(C)(C)C)C(N1CCCC1)C(C)(C)O2` (stereo not given), 179 to 180 °C.

`O=C(O)C1CCc2ccccc2N1C(=O)CS` (stereo not given) returned a melting point of 85 to 96 °C.

`CC1=C(C(=O)O)OCCO1` yielded a melting point of 103 to 105 °C.

In the case of `CC12CC(=O)C3C(CCC4CC(O)CCC43C)C1CCC2C#N` (stereo not given), the melting point lay in the range of 190 to 192 °C. With `CCOC(=O)N1CCCSC1=C(C(C)=O)[N+](=O)[O-]`, the melting point lay in the range of 52 to 54 °C.

On to `CC1(C)CCC(C)(C)c2cc(C(C(N)=O)C(=O)Nc3ccc(C(=O)O)cc3)ccc21` (stereo not given), for which the melting point was 112 to 113 °C. The result for `CCOC(=N)C(O)c1sccc1C` (stereo not given) reads 73 to 76 °C; that for `CCOc1sc(C(=O)N2CCCC2)c2c1C(=O)C(=CO)C(C)(C)C2`, 140 to 142 °C. The result for `CC(C)C[C@@H](C(=O)N[C@@H](C(C)C)[C@H](O)c1c(-c2ccccc2)c1=O)N(C)C(=O)OCc1ccccc1` reads 112 °C; that for `O=c1nc(-c2ccnc(-c3cccs3)c2)sc2ccccc12`, 160 to 161 °C; that for `OCc1cccc(-c2ccc3nnn(Cc4ccc5ncccc5c4)c3n2)c1`, 191 to 193 °C.

Compound `CCCCCCCCCCCCCCCCNc1ccc(C(=O)O)cc1` gave a melting point of 104 to 107 °C.

On to `O=C(O)c1ccc(N2C(=O)CCC2C(=O)O)c([N+](=O)[O-])c1` (stereo not given), for which the melting point is 235 to 237 °C.

For the compound `CCN1c2ncccc2C(C#N)=Nc2c(C)cc(C)nc21`, the melting point is 154 to 155 °C. The result for `O=C1NC(=O)C(C2C3CCCC32)O1` (stereo not given) reads 135 to 141 °C; that for `CCOC(=O)c1cnc(-c2cccs2)s1`, 61 to 62 °C. In the case of `CCCc1nc2c(N)nc3cccnc3c2n1CCCCN(OC)C(=O)Nc1ccccc1` it was 155 to 156 °C. The result for `NC(=O)CC1Nc2cccc3cccc(c23)S1(=O)=O` (stereo not given) reads 195 to 196 °C; that for `CCCCc1oc2ccccc2c1C(=O)Nc1ccc2c(Br)c(OCC(=O)OC)ccc2c1`, 179 to 181 °C. Compound `CCCC(Oc1ccc(Cl)c(C)c1)C(=O)NCc1ccccc1` (stereo not given) showed a melting point of 75 to 78 °C. The result for `O=C(O)COc1c(Br)cc(C(=O)c2c(Cc3ccccc3)oc3ccccc23)cc1Br` reads 165 to 167 °C; that for `O=C(O)c1ccc(CCCOCCCCCCBr)s1`, 93 to 95 °C. The result for `C[N+]([O-])=C(Cn1ccnc1)c1ccc2ccccc2c1` reads 112 to 114 °C; that for `CCOC(=O)c1c(N2CCNCC2)c2ccc(C)nc2n(CC)c1=O`, 137 to 139 °C. In the case of `Cn1cc(CO)c(=O)c2ccc(C(F)(F)F)cc21` it was 172 to 175 °C; in that of `CC(=O)/C=C/c1cc(F)c2ncc(C(=O)NCc3ccc(Cl)cc3)c(O)c2c1`, 286 to 289 °C; in that of `Cc1c(NC(=O)C(CSC(=O)c2ccco2)Cc2ccccc2)cccc1C(=O)O` (stereo not given), 113 to 116 °C. In turn, `CCOC(=O)Cc1c(C)[nH]c2cc(F)c(OC)c(F)c12` displayed a melting point of 92.1 to 92.7 °C.

On to `Nc1ccc2c(c1N)Cc1ccccc1-2`, for which the melting point is 240 to 243 °C. In the case of `O=c1ncc(Cl)cn1COCc1cccs1` it was 132 °C. For the compound `CCCOc1ccc(S(=O)(=O)N2CCN(CC)CC2)cc1-c1nc2cc(N)c([N+](=O)[O-])cc2c(=O)[nH]1`, the melting point is 248 to 250 °C. For the compound `CCOc1cc2ncc(C#N)c(Nc3cccc(Cl)c3)c2cc1OCC`, the melting point lay within 188 to 190 °C. With `Cc1ccc(C=CC#N)cc1C`, the melting point was 93.9 °C. In the case of `CCOC(=O)c1c[nH]cc1-c1ccc(Cl)cc1` it was 137 to 138 °C; in that of `CC(N)c1c[nH]c(-c2ccccc2)n1` (stereo not given), 30 °C. The compound `CON=C1CSc2cccc(Cl)c2CN1` displayed a melting point of 120 to 121 °C. The result for `CCn1c2c(c3ccccc31)S(=O)(=O)N(C)C(C(=O)Nc1ccccc1)=C2O` reads 268 °C. In the case of `CC1(CC(=O)O)OCCC2=C1Cc1ccccc12` (stereo not given) it was 179 to 180 °C; in that of `CCC(=S)C1=C(C)NC2=C(C(=O)c3ccccc32)C1c1ccccc1[N+](=O)[O-]` (stereo not given), 221 °C; in that of `Cc1cnc2nc(NS(=O)(=O)c3ccccc3Cl)nn2c1`, 236 to 239 °C.

The values above are taken from a melting point compilation (Tetko et al.; mined from patent text by program, amines drawn as free bases though some values may be those of a salt).
